Results from patent publication USRE37781E1, “Substituted cyclic carbonyls and derivatives thereof useful as retroviral protease inhibitors” (DuPont Pharmaceuticals Company, priority 1991, dated 2002).
≈ marks a conversion by molar mass, not a printed value. Like-named read-outs stand apart in the source and are kept apart here.

Legend:
HIV-1 (RF) in MT-2 cells = assay: microbe, parasite or virus in culture; format: cell-based
Experimental: DNA Plasmids and in vitro RNA transcripts:
Plasmid pDAB 72 containing both gag and pol sequences of BH10 (bp 113-1816) cloned into PTZ 19R was prepared according to Erickson-Viitanen et al. AIDS Research and Human Retroviruses 1989, 5, 577. The plasmid was linearized with Bam HI prior to the generation of in vitro RNA transcripts using the Riboprobe Gemini system II kit (Promega) with T7 RNA polymerase. Synthesized RNA was purified by treatment with RNase free DNAse (Promega), phenol-chloroform extraction, and ethanol precipitation. RNA transcripts were dissolved in water, and stored at −70° C. The concentration of RNA was determined from the A260.
Biotinylated capture probes were purified by HPLC after synthesis on an Applied Biosystems (Foster City, Calif.) DNA synthesizer by addition of biotin to the 5′ terminal end of the oligonucleotide, using the biotin-phosphoramidite reagent of Cocuzza, Tet. Lett. 1989, 30, 6287. The gag biotinylated capture probe (5-biotin-[…] 3′) was complementary to nucleotides 889-912 of HXB2 and the pol biotinylated capture probe (5′-biotin-[…] 3′) was complementary to nucleotides 2374-2395 of HXB2. Alkaline phosphatase conjugated oligonucleotides used as reporter probes were prepared by Syngene (San Diego, Calif.). The pol reporter probe (5′ […] 3′) was complementary to nucleotides 2403-2425 of HXB2. The gag reporter probe (5′ […] 3′) was complementary to nucleotides 950-973 of HXB2. All nucleotide positions are those of the GenBank Genetic Sequence Data Bank as accessed through the Genetics Computer Group Sequence Analysis Software Package (Devereau Nucleic Acids Research 1984, 12, 387). The reporter probes were prepared as 0.5μM stocks in 2× SSC (0.3M NaCl, 0.03M sodium citrate), 0.05M Tris pH 8.8, 1 mg/mL BSA. The biotinylated capture probes were prepared as 10 μM stocks in water.
Streptavidin coated plates:
Nunc-immunomodule microtiter plate strips were coated by addition of 200 μL of streptavidin (30 ug/mL, Scripps, La Jolla, Calif.) in freshly prepared 10 mM sodium carbonate (pH 9.6). Plates were incubated overnight at 4° C. Streptavidin solution was aspirated from the wells and a blocking buffer composed of phosphate buffered saline (PBS), 20 mg/mL bovine serum albumin (crystalline, nuclease and protease free, Calbiochem) and 100 mg/mL lactose (Sigma) was added to the plates for 3 hrs at room temperature. Blocking buffer was removed from the wells, which were allowed to dry overnight at room temperature and subsequently stored at 4° C. in zip lock bags with desiccant. For the majority of the compound evaluation experiments, streptavidin coated plates were obtained from Du Pont Biotechnology Systems (Boston, Mass.).
MT-2, CEM, and H9 cells were maintained in RPMI 1640 supplemented with 5% fetal calf serum (FCS), 2 mM L-glutamine and 50 μg/mL gentamycin, all from Gibco. Laboratory strains of HIV-1 (RF, MN and IIIB) were propagated in H9 cells in the same medium. Virus stocks were prepared approximately 1 month after acute infection of H9 cells by clarification of the tissue culture medium and storage of aliquots at −70° C. […] Each aliquot of virus stock used for infection was thawed only once. In some cases, infected H9 cells were shifted to Dulbecco's modified Eagle's medium 3-10 days before collection of virus in order to generate virus stocks in medium with low biotin content. Clinical isolates of HIV that had been passaged once in MT-2 cells were used to infect fresh MT-2 cells in RPMI medium. Three days after infection, cells were pelleted, resuspended and culture continued in Dulbecco's modified Eagle's medium as above. Virus stocks of clinical isolates were prepaid 10-15 days after infection when cytopathic effects were apparent in the culture.

[1] = molecular target: single-chain tethered dimer of HIV protease (Human immunodeficiency virus 1, UniProt P04585); assay: biochemical; format: biochemical; design: fused on or other part: A second copy of the same protease unit is joined to the first by a short peptide tether, giving one polypeptide
[2] = Human immunodeficiency virus 1, MT2, 48 h, Table 2d, class symbols, read-out: IC90
[3] = read-out: HPLC K1, Table 2d, class symbols
[4] = Human immunodeficiency virus 1, MT2, 48 h, Table 2d, HIV RNA assay, read-out: IC90
[5] = read-out: HPLC K1, Table 2d, HIV protease inhibition, HPLC method

**Q.** For `CCCNC(=O)c1cccc(CN2C(=O)N(Cc3cccc(C(=O)NCCC)c3)C(Cc3ccccc3)C(O)C(O)C2Cc2ccccc2)c1` (stereo not drawn) [15WM], which IC90 (HIV-1 (RF) in MT-2 cells; [2]) is on record?
**A.** < 10 µg/mL

**Q.** What about the Ki [1, 3] of the same compound?
**A.** < 10 nM

**Q.** How did the IC90 (HIV-1 (RF) in MT-2 cells; Table 2r) turn out when `O=P1(Oc2ccccc2)N(CC2CC2)[C@H](Cc2ccccc2)[C@H](O)[C@@H](O)[C@@H](Cc2ccccc2)N1CC1CC1` (stereo partly drawn) [28C] was run?
**A.** +++ (+++=<10 μg/mL)

**Q.** And the Ki ([1]; Table 2r, read-out: Ki HPLC)?
**A.** 10 to 1000 nM

**Q.** For `CCC(CN1C(=O)N(CC(CC)=NO)C(Cc2ccccc2)C(O)C(O)C1Cc1ccccc1)=NO` (stereo not drawn) [Example 15VP], which IC90 (HIV-1 (RF) in MT-2 cells; [2]) is on record?
**A.** 10 to 100 µg/mL (≈ 20.1 to 201 µM)

**Q.** What about the Ki [1, 3] of the same compound?
**A.** 10 to 1000 nM

**Q.** Which results are given for `O=C1N(Cc2cccc(CO)c2)C(Cc2ccc(F)cc2)C(O)C(O)C(Cc2ccc(F)cc2)N1Cc1cccc(CO)c1` (stereo not drawn) [20T]?
**A.** IC90 (HIV-1 (RF) in MT-2 cells; Table 2i): +++ (+++=<10 μg/mL); Ki ([1]; Table 2i, read-out: HPLC Ki): < 10 nM

**Q.** Which results are given for `N#Cc1cccc(CN2C(=S)N(Cc3ccc(CO)cc3)C(Cc3ccccc3)C(O)C(O)C2Cc2ccccc2)c1` (stereo not drawn) [Example 27H]?
**A.** IC90 (HIV-1 (RF) in MT-2 cells; Table 2q): +++ (+++=<10 μg/mL); Ki ([1]; Table 2q, read-out: HPLC Ki): < 10 nM

**Q.** Which IC90 (HIV-1 (RF) in MT-2 cells; [4]) does the source give for `NC(=O)Cc1cccc(CN2C(=O)N(Cc3cccc(CC(N)=O)c3)C(Cc3ccccc3)C(O)C(O)C2Cc2ccccc2)c1` (stereo not drawn) [15DV] here?
**A.** < 10 µg/mL

**Q.** And the Ki [1, 5]?
**A.** < 10 nM

**Q.** Which results are given for `NS(=O)(=O)c1cccc(CN2C(=O)N(Cc3cccc(S(N)(=O)=O)c3)C(Cc3ccccc3)C(O)C(O)C2Cc2ccccc2)c1` (stereo not drawn) [15XQ]?
**A.** IC90 (HIV-1 (RF) in MT-2 cells; [4]): < 10 µg/mL; Ki [1, 5]: < 10 nM

**Q.** How did the IC90 (HIV-1 (RF) in MT-2 cells; [2]) turn out when `O=C1NC(Cc2ccccc2)C(O)C(O)C(Cc2ccccc2)N1CCCCCCO` (stereo not drawn) [Example 12C] was run?
**A.** < 10 µg/mL

**Q.** And the Ki [1, 3]?
**A.** < 10 nM

**Q.** Which IC90 (HIV-1 (RF) in MT-2 cells; Table 2i) does the source give for `O=C1N(Cc2cccc(-c3cc[nH]n3)c2)C(Cc2ccc(F)cc2)C(O)C(O)C(Cc2ccc(F)cc2)N1CC1CC1` (stereo not drawn) [20AE] here?
**A.** +++ (+++=<10 μg/mL)

**Q.** And the Ki ([1]; Table 2i, read-out: HPLC Ki)?
**A.** < 10 nM

**Q.** For `CNC(=S)NCCCCCN1C(=O)N(CCCCCNC(=S)NC)C(Cc2ccccc2)C(O)C(O)C1Cc1ccccc1` (stereo not drawn) [15EV], which IC90 (HIV-1 (RF) in MT-2 cells; Table 2d, HIV RNA assay) is on record?
**A.** ++/+ (The ++/+ is used in the cases where an IC90 was determined to be >50 μg/mL)

**Q.** What about the Ki ([1]; Table 2d, HIV protease inhibition, HPLC method, read-out: HPLC K1) of the same compound?
**A.** 10 to 1000 nM

**Q.** `C[Si](C)(C)CCOCn1cncc1-c1cccc(CN2C(=O)N(Cc3cccc(-c4cncn4COCC[Si](C)(C)C)c3)C(Cc3ccccc3)C(O)C(O)C2Cc2ccccc2)c1` (stereo not drawn) [Example 15BJ] was tested. Which IC90 (HIV-1 (RF) in MT-2 cells; [4]) did it give?
**A.** < 10 µg/mL

**Q.** And the Ki [1, 5]?
**A.** < 10 nM

**Q.** `O=C1N(Cc2cccc(O)c2)C(Cc2ccccc2)C(O)C(O)C(Cc2ccccc2)N1Cc1ccccn1` (stereo not drawn) [10Q] was tested. Which IC90 (HIV-1 (RF) in MT-2 cells; [2]) did it give?
**A.** < 10 µg/mL

**Q.** What about the Ki [1, 3] of the same compound?
**A.** 10 to 1000 nM

**Q.** Which results are given for `OCc1cccc(CN2C(=S)N(Cc3cccc(CO)c3)C(Cc3ccccc3)C(O)C(O)C2Cc2ccccc2)c1` (stereo not drawn) [Example 27D]?
**A.** IC90 (HIV-1 (RF) in MT-2 cells; Table 2q): +++ (+++=<10 μg/mL); Ki ([1]; Table 2q, read-out: HPLC Ki): < 10 nM

**Q.** What does the source list for `COc1cccc(CC2C(O)C(O)C(Cc3cccc(OC)c3)N(CC3CC3)C(=O)N2CC2CC2)c1` (stereo not drawn) [20AS]?
**A.** IC90 (HIV-1 (RF) in MT-2 cells; Table 2i): +++ (+++=<10 μg/mL); Ki ([1]; Table 2i, read-out: HPLC Ki): < 10 nM

**Q.** Which IC90 (HIV-1 (RF) in MT-2 cells; [2]) does the source give for `O=C1N(Cc2cccc(I)c2)C(Cc2ccccc2)C(O)C(O)C(Cc2ccccc2)N1Cc1cccc(I)c1` (stereo not drawn) [Example 12J] here?
**A.** < 10 µg/mL

**Q.** And the Ki [1, 3]?
**A.** < 10 nM

**Q.** With `O=C1N(Cc2cccc(OCc3ccccc3)c2)C(Cc2ccccc2)C(O)C(O)C(Cc2ccccc2)N1Cc1cccc([N+](=O)[O-])c1` (stereo not drawn) [11P] as the compound, how does the IC90 (HIV-1 (RF) in MT-2 cells; [2]) read?
**A.** < 10 µg/mL

**Q.** And the Ki [1, 3]?
**A.** < 10 nM

**Q.** Which results are given for `CC(O)c1ccc(CN2C(=O)N(Cc3ccc(C(C)O)cc3)C(Cc3ccccc3)C(O)C(O)C2Cc2ccccc2)cc1` (stereo not drawn) [20M]?
**A.** IC90 (HIV-1 (RF) in MT-2 cells; Table 2i): +++ (+++=<10 μg/mL); Ki ([1]; Table 2i, read-out: HPLC Ki): < 10 nM

**Q.** Which results are given for `O=C1N(CCCCC2CO2)C(Cc2ccccc2)C(O)C(O)C(Cc2ccccc2)N1CCCCC1CO1` (stereo not drawn) [Example 13E]?
**A.** IC90 (HIV-1 (RF) in MT-2 cells; [2]): < 10 µg/mL; Ki [1, 3]: 10 to 1000 nM
